This passage reports Ki results from BindingDB's records for PubMed 10087012 (Medical College of Georgia, 1999).

The target in the test is Sigma non-opioid intracellular receptor 1 (Homo sapiens, UniProt Q99720).
Sigma non-opioid intracellular receptor 1, sequence (Q99720 whole entry): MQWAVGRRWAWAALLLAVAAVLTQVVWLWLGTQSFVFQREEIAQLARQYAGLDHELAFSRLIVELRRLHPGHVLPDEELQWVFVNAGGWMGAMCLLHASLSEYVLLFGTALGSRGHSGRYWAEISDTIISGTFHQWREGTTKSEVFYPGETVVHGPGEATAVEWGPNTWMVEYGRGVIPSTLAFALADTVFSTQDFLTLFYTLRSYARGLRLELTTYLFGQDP

In turn, `COc1ccc2c(c1)C13CCCCC1C(C2)N(C)CC3` (centres undefined) [Levomethorpan] came in with a Ki of 521 nM.
For `O=c1[nH]c2nccn2c2c1ncn2C1CC(O)C(COP(=O)(O)OP(=O)(O)OP(=O)(O)O)O1` (centres undefined) [CAS_85976-54-1] the value was 42 nM; for `C#CCN(C)CCCOc1ccc(Cl)cc1Cl` [US8633208, Clorgyline], 8.7 nM.
The result for `CCN(CC)CCOCCOC(=O)C1(c2ccccc2)CCCC1` [SMR000326757] reads 10.4 nM.
